Laboratory results taken from patent US8865655B2, “Depsipeptides and their therapeutic use” (Karus Therapeutics Limited, priority 2006, dated 2014).

System: HDAC (Hela Nuclear Extract)
Test: In vitro HDAC fluorescent activity assay (Biomol kit, Fluor de Lys substrate) with Hela Nuclear Extract
Type: biochemical
Conditions: compounds reduced with 30 mM DTT prior to analysis; diluted Hela Nuclear Extract; 37° C. for 1 hour; mean of duplicate samples
Method: In vitro HDAC assays were performed using a HDAC fluorescent activity assay kit (Biomol, UK) according to the manufacturer's instructions. Compounds were reduced prior to analysis; 1 mM compound was reduced with 30 mM DTT in DMSO overnight at room temperature, protected from light. Reactions were then set up in a 96-well plate. For each reaction 10 μl compound (5× required concentration in assay buffer) was mixed with […] diluted Hela Nuclear Extract (30-fold in assay buffer). Serial dilutions were set up for each compound. Reactions containing Hela extract only and assay buffer only were also set up. 25 μl diluted Fluor de Lys™ substrate (100-fold in assay buffer) was added to each reaction, which were then incubated at 37° C. for 1 hour. The reaction was stopped by addition of 50 μl Fluor de Lys™ Developer (20-fold dilution in assay buffer, plus TSA diluted 100-fold). The reactions were then incubated at room temperature for 10 minutes before fluorescence was measured using a CytoFluor II Fluorescence Multiwell Plate Reader and CytoFluor II software with filters set at […] for excitation and […] for emission. Inhibition of in vitro HDAC activity was determined for mean values of duplicate samples as percentages relative to HeLa extract only reactions. IC50 values were calculated using GraphPad Prism software.

| IC50 | SMILES |
| --- | --- |
| 47 ± 9.9 nM | CC(C)[C@H]1NC(=O)[C@@H](Cc2ccccc2)NC(=O)[C@@H](C)NC(=O)C[C@@H](/C=C/CCS)OC(=O)CNC1=O [Compound 16, (6R,9R,12R,16S)-9-Benzyl-6-isopropyl-16-((E)-4-mercapto-but-1-enyl)-12-methyl-1-oxa-4,7,10,13-tetraaza-cyclohexadecane-2,5,8,11,14-pentaone] |
| 126 ± 5.3 nM | CC(=O)SCC/C=C/[C@@H]1CC(=O)N[C@H](C)C(=O)N[C@H](Cc2ccccc2)C(=O)N[C@H](C(C)C)C(=O)NCC(=O)O1 [Compound 17, Thioacetic acid S-[(E)-4-((6R,9R,12R,16S)-9-benzyl-6-isopropyl-12-methyl-2,5,8,11,14-pentaoxo-1-oxa-4,7,10,13-tetraaza-cyclohexadec-16-yl)-but-3-enyl]ester] |
